Reference: patent US5753635A, “Purine derivatives and their use as anti-coagulants” (Berlex Laboratories, Inc., priority 1996, dated 1998)
Non-standard residues stand in square brackets, D forms with d. Residues, ends and D or L forms follow the SMILES beside them. *: point of attachment. pNA = O=[N+]([O-])c1ccc(N*)cc1

Columns and labels:
[1] = target: T1, Human tissue plasminogen activator (tPA) (Two chains, Sigma) (Homo sapiens, UniProt P00750); assay: In vitro chromogenic assay for tissue plasminogen activator; type: biochemical; conditions: substrate concentration stated equal to Km; 10 nM tPA, pH 7.5, ambient temperature; read-out: Km (S2288)
T1 construct: purchased Sigma
Experimental: (§1) The activities were determined as an initial rate of cleavage of the peptide p-nitroanilide by the enzyme. The cleavage product, p-nitroaniline, absorbs at 405 nm with a molar extinction coefficient of 9920 M^-1 cm^-1.
(§2) 50 mM TrisHCl, 150 mM NaCl, 2.5 mM CaCl2, and 0.1% polyethylene glycol 6000, pH 7.5.
3. Human tissue plasminogen activator (tPA) (Two chains, Sigma) stock solution: 1 mg/mL, stored at -80° C. (working solution (2×): 1361 ng/mL in assay buffer, prepare prior to use).
3. S2288 (tPA assay) stock solution: 10 mM in dH2 O, stored at 4° C. (working solution (4×):
1484 μM in assay buffer).
Assays were performed in 96-well microtiter plates in a total volume of 200 μl. […] Concentrations of the standard inhibitor compound in the assay were from 5 μM to 0.021 μM in 1 to 3 dilution. Concentration of the test compounds in the assay typically were from 10 μM to 0.041 μM in 1 to 3 dilution. […]
(§3) The enzyme kinetics were measured at 405 nm at 10 seconds intervals for five minutes in a THERMOmax plate reader at ambient temperature.
(§4) Enzyme rates were calculated as mOD/min based on the first two minutes readings. The IC50 values were determined by fitting the data to the log-logit equation (linear) or the Morrison equation (non-linear) with an EXCEL spread-sheet. […]

Human thrombin = target: T2, Human thrombin (Homo sapiens, UniProt P00734); assay: In vitro chromogenic assay for thrombin; type: biochemical; conditions: substrate concentration stated equal to Km; 20 nM thrombin, pH 7.5, ambient temperature; read-out: Km (S2302)
T2 construct: Human thrombin stock solution; purchased Enzyme Research Lab
Experimental: as §1, §2
2. Human thrombin stock solution: Stored at -80° C. (working solution (2×): 1200 ng/mL or 40 nM in assay buffer, prepare prior to use).
2. S2302 (Thrombin assay) stock solution: 10 mM in dH2 O, stored at 4° C. (working solution (4×): 1200 μM in assay buffer).
Assays were performed in 96-well microtiter plates in a total volume of 200 μl. […] Concentrations of the standard inhibitor compound in the assay were from 5 μM to 0.021 μM in 1 to 3 dilution. Concentration of the test compounds in the assay typically were from 10 μM to 0.041 μM in 1 to 3 dilution. For potent test compounds, the concentrations used in the factor Xa assays were further diluted 100 fold (100 nM to 0.41 nM) or 1000 fold (10 nM to 0.041 nM). […]
as §3, §4

T1 sequence (P00750 311-562 limits assumed): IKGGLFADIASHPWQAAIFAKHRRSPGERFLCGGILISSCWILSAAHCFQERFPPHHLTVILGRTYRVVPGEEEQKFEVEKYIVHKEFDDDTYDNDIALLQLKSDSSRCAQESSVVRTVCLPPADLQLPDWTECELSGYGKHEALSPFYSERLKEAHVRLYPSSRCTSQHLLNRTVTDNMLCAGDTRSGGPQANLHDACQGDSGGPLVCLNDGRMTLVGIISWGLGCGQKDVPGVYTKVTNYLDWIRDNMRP
T1 sequence (P00750 36-310 partner limits assumed): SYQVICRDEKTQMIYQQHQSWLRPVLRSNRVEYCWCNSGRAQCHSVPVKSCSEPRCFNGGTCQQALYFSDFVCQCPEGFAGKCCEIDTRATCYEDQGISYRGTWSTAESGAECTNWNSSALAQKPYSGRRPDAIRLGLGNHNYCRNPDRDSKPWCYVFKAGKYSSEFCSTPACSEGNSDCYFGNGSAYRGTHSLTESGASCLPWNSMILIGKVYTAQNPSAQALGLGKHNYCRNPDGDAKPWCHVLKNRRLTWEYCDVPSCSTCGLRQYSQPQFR

Km [1] [µM] | Km (Human thrombin) [µM] | Compound
371 |  | CC[C@@H](C)[C@@H](N)C(=O)N1CCC[C@H]1C(=O)N[C@@H](CCCN=C(N)N)C(=O)Nc1ccc([N+](=O)[O-])cc1 [Example S2288] (H-[dI]-Pro-Arg-pNA)
 | 300 | N=C(N)NCCC[C@H](NC(=O)[C@H](Cc1ccccc1)NC(=O)[C@H]1CCCN1)C(=O)Nc1ccc([N+](=O)[O-])cc1 [Example S2302] (H-[dP]-Phe-Arg-pNA)
